Source: patent publication US9567334B2, “Quinolone derivatives as fibroblast growth factor receptor inhibitors” (Principia Biopharma, Inc., priority 2014, dated 2017)

Test system: SNU-16 cells
Assay: Inhibition of FGFR2-dependent cell growth (Cell-titer Glo, 72 hrs)
Conditions: Homo sapiens, SNU-16, 72 h, read-out: SNU16 IC50 values

C=CC(=O)N1CCN(CCCn2c(=O)c(-c3c(Cl)c(OC)cc(OC)c3Cl)cc3cnc(NC4COC4)nc32)CC1 [Example 66, 8-(3-(4-acryloylpiperazin-1-yl)propyl)-6-(2,6-dichloro-3,5-dimethoxyphenyl)-2-(oxetan-3-ylamino)pyrido[2,3-d]pyrimidin-7(8H)-one]
IC50: > 5 µM
